The target of assay [1] is Casein kinase I isoform gamma-1 (Homo sapiens) (UniProt Q9HCP0). In words: Inhibition of human recombinant CK1g1 at 40 nM in presence of ATP by radiometric assay relative to control.
The target in assay [2] is Tyrosine-protein kinase JAK1 (Homo sapiens) (UniProt P23458). In words: Inhibition of human recombinant JAK1 at 40 nM in presence of ATP by radiometric assay relative to control.
Assay [3] addresses T1, NUAK family SNF1-like kinase 1 (Homo sapiens) (UniProt O60285).
T1 sequence (whole entry): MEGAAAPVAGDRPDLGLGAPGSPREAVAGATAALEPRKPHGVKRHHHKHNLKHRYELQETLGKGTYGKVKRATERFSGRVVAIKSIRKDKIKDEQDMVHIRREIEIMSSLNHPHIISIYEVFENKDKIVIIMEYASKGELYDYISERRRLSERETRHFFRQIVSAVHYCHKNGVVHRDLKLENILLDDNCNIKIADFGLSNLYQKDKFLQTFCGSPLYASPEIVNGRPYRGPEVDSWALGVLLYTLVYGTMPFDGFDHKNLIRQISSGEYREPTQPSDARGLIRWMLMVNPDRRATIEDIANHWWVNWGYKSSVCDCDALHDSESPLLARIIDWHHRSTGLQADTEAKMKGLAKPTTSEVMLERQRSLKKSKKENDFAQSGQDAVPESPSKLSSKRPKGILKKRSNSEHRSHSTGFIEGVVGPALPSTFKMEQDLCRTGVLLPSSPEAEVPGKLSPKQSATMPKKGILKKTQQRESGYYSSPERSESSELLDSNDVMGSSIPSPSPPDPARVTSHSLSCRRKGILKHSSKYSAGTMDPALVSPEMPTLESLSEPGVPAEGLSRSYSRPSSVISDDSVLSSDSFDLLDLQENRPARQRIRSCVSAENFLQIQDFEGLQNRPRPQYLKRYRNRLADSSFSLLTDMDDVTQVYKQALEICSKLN
In words: Inhibition of human recombinant NuaK1 at 40 nM in presence of ATP by radiometric assay relative to control.

Assay [4] concerns the target Serine/threonine-protein kinase PAK 4 (Homo sapiens) (UniProt O96013). The experiment in a line: Inhibition of human recombinant PAK4 at 40 nM related to control ULK1.
Assay [5] deals with Epithelial discoidin domain-containing receptor 1 (Homo sapiens) (UniProt Q08345). The experiment in a line: Inhibition of human recombinant DDR1 at 500 nM in presence of ATP by radiometric assay relative to control.
Assay [6] has as its target Glycogen synthase kinase-3 beta (Homo sapiens) (UniProt P49841). The experiment in a line: Inhibition of human recombinant GSK3B at 500 nM in presence of ATP by radiometric assay relative to control.
Assay [7] concerns the target T2, Mitogen-activated protein kinase 13 (Homo sapiens) (UniProt O15264).
T2 sequence (whole entry): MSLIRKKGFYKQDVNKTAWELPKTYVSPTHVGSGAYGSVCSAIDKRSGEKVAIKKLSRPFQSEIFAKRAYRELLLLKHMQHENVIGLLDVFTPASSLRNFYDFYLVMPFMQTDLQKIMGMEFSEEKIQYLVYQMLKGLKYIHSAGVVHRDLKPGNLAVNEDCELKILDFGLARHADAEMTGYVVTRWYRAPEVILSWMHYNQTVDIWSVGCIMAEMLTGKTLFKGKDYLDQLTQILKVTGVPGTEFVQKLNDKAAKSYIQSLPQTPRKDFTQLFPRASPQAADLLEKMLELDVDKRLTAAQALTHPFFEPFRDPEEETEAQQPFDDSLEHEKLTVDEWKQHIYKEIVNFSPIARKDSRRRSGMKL
In words: Inhibition of human recombinant p38delta at 500 nM in presence of ATP by radiometric assay relative to control.

For assay [8], the target named is Serine/threonine-protein kinase WNK1 (Homo sapiens) (UniProt Q9H4A3). The experiment in a line: Inhibition of human recombinant Wnk1 at 500 nM related to control ULK1.
Assay [9] concerns the target Eukaryotic translation initiation factor 2-alpha kinase 1 (Homo sapiens) (UniProt Q9BQI3). The experiment in a line: Inhibition of human recombinant HRI at 15 nM in presence of ATP by radiometric assay relative to control.
The target of assay [10] is T3, Serine/threonine-protein kinase ICK (Homo sapiens) (UniProt Q9UPZ9).
T3 sequence (whole entry): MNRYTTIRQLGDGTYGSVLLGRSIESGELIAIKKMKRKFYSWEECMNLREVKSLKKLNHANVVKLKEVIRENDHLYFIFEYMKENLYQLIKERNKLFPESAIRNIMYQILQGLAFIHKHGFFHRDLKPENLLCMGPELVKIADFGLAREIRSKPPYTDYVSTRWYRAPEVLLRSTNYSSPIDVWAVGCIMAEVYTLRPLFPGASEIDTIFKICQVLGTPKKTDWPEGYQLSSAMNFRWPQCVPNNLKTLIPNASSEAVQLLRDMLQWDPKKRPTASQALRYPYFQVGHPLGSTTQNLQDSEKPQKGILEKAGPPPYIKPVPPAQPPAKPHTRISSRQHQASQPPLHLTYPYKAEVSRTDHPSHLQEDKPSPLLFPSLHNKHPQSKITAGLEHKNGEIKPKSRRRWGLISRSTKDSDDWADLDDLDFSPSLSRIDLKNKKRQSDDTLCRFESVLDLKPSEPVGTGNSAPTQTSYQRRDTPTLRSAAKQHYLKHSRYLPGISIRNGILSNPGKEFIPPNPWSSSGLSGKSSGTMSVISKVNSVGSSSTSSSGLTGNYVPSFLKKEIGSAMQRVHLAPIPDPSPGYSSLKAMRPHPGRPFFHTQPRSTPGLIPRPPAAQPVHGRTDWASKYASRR
In words: Inhibition of human recombinant ICK at 15 nM in presence of ATP by radiometric assay relative to control.

Assay [11] has as its target Serine/threonine-protein kinase PLK3 (Homo sapiens) (UniProt Q9H4B4). The experiment in a line: Inhibition of human recombinant PLK3 at 15 nM in presence of ATP by radiometric assay relative to control.
Assay [12] deals with Calcium/calmodulin-dependent protein kinase type 1B (Homo sapiens) (UniProt Q6P2M8). The experiment in a line: Inhibition of human recombinant CaMK1b at 15 nM related to control ULK1.
Assay [13] concerns the target Insulin receptor (Homo sapiens) (UniProt P06213). In words: Inhibition of human recombinant INSR at 15 nM related to control ULK1.
Assay [14] concerns the target Protein-tyrosine kinase 2-beta (Homo sapiens) (UniProt Q14289). The experiment in a line: Inhibition of human recombinant PYK2 at 15 nM related to control ULK1.
Assay [15] deals with Serine/threonine-protein kinase SIK2 (Homo sapiens) (UniProt Q9H0K1). In words: Inhibition of human recombinant QIK at 15 nM related to control ULK1.

Serine/threonine-protein kinase WNK1 (Homo sapiens), sequence (Q9H4A3 whole entry, looked up): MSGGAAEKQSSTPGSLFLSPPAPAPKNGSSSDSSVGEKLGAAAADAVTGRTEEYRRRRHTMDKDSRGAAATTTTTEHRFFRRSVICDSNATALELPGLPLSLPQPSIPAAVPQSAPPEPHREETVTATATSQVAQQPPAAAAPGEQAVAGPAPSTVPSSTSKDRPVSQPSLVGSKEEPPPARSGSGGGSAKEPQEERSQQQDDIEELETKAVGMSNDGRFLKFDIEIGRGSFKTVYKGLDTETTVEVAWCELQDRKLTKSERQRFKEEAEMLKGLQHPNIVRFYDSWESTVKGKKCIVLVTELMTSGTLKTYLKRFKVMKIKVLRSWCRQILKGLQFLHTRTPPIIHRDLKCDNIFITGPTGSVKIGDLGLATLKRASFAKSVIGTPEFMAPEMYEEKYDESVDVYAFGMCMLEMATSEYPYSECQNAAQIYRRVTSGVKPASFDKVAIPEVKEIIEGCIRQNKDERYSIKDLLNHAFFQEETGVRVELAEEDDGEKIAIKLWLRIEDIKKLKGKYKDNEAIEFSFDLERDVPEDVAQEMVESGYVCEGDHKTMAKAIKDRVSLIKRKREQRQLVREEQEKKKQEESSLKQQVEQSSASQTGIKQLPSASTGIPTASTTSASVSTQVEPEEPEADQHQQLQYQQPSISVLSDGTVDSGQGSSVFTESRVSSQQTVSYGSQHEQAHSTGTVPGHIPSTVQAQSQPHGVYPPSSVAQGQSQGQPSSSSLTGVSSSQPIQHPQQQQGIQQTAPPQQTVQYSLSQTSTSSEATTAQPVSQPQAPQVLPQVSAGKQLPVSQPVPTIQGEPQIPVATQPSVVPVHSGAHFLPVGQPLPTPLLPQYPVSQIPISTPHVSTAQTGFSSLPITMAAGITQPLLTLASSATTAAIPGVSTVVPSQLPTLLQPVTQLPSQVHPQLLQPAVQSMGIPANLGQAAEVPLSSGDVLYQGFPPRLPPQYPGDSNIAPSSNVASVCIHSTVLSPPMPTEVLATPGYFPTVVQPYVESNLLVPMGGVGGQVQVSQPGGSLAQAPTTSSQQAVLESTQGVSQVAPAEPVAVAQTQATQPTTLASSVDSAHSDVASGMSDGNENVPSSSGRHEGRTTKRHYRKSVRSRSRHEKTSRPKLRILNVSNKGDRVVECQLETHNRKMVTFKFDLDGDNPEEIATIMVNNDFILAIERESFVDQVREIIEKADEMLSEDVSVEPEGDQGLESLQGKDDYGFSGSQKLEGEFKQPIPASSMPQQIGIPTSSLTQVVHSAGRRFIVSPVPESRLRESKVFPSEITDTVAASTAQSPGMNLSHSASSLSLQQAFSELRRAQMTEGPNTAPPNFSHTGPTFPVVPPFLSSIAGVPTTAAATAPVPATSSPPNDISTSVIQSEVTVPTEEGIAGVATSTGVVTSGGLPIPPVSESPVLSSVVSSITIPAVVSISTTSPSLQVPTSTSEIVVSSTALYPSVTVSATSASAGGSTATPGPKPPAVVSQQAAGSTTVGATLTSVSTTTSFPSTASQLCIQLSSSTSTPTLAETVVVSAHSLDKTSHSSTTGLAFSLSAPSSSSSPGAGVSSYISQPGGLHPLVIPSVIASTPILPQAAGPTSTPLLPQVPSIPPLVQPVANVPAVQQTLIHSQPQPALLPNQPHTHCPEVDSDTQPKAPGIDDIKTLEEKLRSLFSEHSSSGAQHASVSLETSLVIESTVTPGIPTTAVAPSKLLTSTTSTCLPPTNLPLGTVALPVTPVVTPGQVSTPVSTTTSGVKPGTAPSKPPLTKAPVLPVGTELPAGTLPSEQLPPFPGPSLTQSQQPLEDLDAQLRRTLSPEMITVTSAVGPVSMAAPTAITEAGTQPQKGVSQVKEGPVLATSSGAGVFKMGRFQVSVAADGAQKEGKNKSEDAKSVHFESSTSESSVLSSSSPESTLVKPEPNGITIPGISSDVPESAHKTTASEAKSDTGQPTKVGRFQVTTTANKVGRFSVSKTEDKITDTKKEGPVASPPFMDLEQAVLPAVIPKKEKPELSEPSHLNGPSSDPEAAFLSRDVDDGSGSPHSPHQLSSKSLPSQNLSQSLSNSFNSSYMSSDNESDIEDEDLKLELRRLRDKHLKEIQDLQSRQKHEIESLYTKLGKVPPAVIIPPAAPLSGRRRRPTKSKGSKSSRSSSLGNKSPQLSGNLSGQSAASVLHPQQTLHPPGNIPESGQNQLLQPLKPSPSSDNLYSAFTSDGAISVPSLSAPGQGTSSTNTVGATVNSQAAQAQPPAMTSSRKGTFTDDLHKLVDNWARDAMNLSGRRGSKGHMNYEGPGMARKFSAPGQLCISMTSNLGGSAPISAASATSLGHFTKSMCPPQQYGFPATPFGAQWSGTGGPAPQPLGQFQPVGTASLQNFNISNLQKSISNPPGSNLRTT
Serine/threonine-protein kinase PLK3 (Homo sapiens), sequence (Q9H4B4 whole entry, looked up): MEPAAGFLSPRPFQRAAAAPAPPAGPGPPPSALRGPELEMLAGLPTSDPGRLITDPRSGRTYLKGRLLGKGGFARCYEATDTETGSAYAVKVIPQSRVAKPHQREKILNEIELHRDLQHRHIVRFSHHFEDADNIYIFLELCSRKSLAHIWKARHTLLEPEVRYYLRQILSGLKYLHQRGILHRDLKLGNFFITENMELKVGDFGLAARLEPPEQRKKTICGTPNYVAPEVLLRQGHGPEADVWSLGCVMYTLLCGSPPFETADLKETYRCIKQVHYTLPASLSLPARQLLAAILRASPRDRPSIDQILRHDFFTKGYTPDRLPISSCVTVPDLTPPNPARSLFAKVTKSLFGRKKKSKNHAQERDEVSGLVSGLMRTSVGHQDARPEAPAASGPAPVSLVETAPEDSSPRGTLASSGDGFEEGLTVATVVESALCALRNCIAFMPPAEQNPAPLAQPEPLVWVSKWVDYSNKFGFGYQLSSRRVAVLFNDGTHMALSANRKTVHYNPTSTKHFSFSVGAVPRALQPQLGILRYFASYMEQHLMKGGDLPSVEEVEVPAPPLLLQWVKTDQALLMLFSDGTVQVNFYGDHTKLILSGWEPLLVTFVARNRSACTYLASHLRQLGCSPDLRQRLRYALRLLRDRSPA
Protein-tyrosine kinase 2-beta (Homo sapiens), sequence (Q14289 whole entry, looked up): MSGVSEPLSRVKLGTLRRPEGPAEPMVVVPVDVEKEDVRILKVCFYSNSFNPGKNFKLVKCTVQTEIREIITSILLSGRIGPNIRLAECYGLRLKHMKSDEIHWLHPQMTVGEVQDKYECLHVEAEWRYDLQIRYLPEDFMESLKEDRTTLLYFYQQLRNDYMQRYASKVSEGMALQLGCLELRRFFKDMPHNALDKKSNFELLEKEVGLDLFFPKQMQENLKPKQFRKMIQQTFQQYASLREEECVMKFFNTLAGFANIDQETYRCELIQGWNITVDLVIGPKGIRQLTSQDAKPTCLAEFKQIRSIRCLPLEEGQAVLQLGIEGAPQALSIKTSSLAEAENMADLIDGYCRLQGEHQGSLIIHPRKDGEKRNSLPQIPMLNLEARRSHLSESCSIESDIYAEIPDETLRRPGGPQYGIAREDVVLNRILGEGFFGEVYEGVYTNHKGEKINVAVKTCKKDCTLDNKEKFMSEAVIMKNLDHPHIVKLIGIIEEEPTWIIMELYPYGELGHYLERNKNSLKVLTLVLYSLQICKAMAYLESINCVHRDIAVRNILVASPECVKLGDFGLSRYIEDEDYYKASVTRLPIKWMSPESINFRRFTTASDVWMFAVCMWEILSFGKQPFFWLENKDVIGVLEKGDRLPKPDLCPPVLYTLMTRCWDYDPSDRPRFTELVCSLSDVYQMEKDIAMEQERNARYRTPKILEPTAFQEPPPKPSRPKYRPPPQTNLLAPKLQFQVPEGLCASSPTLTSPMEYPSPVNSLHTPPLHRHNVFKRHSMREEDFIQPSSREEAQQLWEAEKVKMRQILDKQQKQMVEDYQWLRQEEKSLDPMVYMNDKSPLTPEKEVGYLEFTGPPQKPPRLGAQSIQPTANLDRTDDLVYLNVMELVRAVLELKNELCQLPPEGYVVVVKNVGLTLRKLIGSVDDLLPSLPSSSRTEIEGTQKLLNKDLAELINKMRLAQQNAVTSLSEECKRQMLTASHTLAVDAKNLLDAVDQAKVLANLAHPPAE
Calcium/calmodulin-dependent protein kinase type 1B (Homo sapiens), sequence (Q6P2M8 whole entry): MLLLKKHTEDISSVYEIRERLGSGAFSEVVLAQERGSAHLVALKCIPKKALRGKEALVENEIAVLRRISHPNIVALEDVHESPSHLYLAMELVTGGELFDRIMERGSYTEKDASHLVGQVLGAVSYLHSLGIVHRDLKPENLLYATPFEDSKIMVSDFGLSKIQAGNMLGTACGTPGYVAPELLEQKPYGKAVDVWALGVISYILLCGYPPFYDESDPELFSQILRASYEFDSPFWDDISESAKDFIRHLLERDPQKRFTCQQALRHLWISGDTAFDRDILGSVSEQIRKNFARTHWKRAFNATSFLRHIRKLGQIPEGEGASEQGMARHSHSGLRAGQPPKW
Serine/threonine-protein kinase PAK 4 (Homo sapiens), sequence (O96013 whole entry, looked up, the tested form may be a part): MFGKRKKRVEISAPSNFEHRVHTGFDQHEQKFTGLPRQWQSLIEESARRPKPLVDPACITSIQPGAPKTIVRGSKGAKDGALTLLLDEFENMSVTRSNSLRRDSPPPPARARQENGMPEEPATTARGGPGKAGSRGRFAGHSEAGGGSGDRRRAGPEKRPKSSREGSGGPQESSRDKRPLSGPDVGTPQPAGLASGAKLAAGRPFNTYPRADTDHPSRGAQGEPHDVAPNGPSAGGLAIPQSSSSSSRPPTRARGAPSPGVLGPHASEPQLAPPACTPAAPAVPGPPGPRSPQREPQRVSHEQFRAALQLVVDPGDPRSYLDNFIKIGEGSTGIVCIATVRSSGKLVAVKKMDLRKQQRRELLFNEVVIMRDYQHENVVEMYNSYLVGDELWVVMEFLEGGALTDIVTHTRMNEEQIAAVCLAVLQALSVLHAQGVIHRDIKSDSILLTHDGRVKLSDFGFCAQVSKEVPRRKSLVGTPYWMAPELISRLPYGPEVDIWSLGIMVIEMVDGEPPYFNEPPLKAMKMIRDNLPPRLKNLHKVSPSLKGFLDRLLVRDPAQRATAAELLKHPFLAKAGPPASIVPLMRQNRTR

Take `O=C(N[C@@H](C1CC1)C(F)(F)F)c1cc(-c2cnn3cc(-c4ccc(F)cc4)cnc23)cs1`: the results for the inhibition in assay [1], in [2] and in assay [3] were 0%, 0% and 5%, respectively. The fold change (FC) in assay [4] stood at 0.11.

For `CNC(=O)c1ccccc1Oc1nc(Nc2cc(OC)c(OC)c(OC)c2)ncc1Br`, the inhibition stood at 47% in assay [5], 0% in assay [6] and 19% in assay [7]. The fold change (FC) in assay [8] stood at 0.

On to `CC(C)[C@H](NC(=O)c1cc(-c2cnn3cc(-c4ccc(OCCN5CCCCC5)cc4)cnc23)cs1)C(F)(F)F`, for which the results for the inhibition in assay [9], in assay [10] and in assay [11] were 0%, 0% and 3%, respectively. Moreover, the fold change (FC) in assay [12] came out at 0; in assay [13] it was 0; in [14] it was 0; in [15], 1.02.

Broadly, the inhibition is the share of the control response that was lost under treatment.

The record behind these values is ChEMBL document CHEMBL5653631, “A Potent and Selective ULK1 Inhibitor Suppresses Autophagy and Sensitizes Cancer Cells to Nutrient Stress” (iScience, 2018).
